Literature values, collected in paper PMC10671431, “New Derivatives of N-Hydroxybutanamide: Preparation, MMP Inhibition, Cytotoxicity, and Antitumor Activity” (International Journal of Molecular Sciences, 2023).
Read-outs that look alike come from different tables or passages of the source.

Legend:
[1] = test system: B16-BL6 melanoma; set-up: method as in PMID 8050828; details: mice with B16-BL6 melanoma; cited from earlier work
[2] = test system: pancreatic carcinoma cells MiaPaCa2; set-up: method as in PMID 24022491; details: 5 μM, 24 h of exposure; cited from earlier work
[3] = test system: pancreatic adenocarcinoma cells AsPC1; set-up: method as in PMID 10767785; details: 72 h of exposure, cited from earlier work
[4] = test system: pancreatic adenocarcinoma cells Capan1; set-up: method as in PMID 10767785; details: 72 h of exposure, cited from earlier work
[5] = test system: human glioma U-251 cells; set-up: method as in PMID 10048980; details: 10 μM, 96 h of exposure; cited from earlier work
[6] = test system: pancreatic adenocarcinoma HPAC cells; set-up: method as in PMID 9224409; details: 4000 ng/mL (8.37 μM), 24 h of exposure; cited from earlier work
[7] = test system: Shionogi hormone-responsive breast carcinoma cells; set-up: method as in PMID 8347186; details: 156 μg/mL (326.61 μM), 96 h of exposure; cited from earlier work
[8] = test system: pancreatic carcinoma cells CD18; set-up: method as in PMID 24022491; details: 5 μM, 24 h of exposure; cited from earlier work
[9] = test system: rat prostate cells derived from R3327-MatLyLu Dunning tumor; set-up: method as in PMID 10754522; details: 4000 ng/mL (8.37 μM), 48 h of exposure; cited from earlier work
[10] = test system: WM266-4 melanoma cells in nude mice; set-up: method as in PMID 27687955; details: cited from earlier work
[11] = test system: human MV522 lung cancer cells in nude mice; set-up: method as in PMID 10430098; details: cited from earlier work
[12] = test system: Lewis lung carcinoma; set-up: method as in PMID 9247252; details: cited from earlier work
[13] = test system: human malignant glioma cells U-87; set-up: method as in PMID 10213221; details: cited from earlier work
[14] = test system: hormone-sensitive prostate cancer G subline of Dunning tumor; set-up: method as in PMID 16096433; details: rats; cited from earlier work
[15] = test system: MMP-8; set-up: method as in PMID 23541335, PMID 16538215; details: cited from earlier work
[16] = test system: MMP-1; set-up: method as in PMID 23541335, PMID 16538215; details: cited from earlier work
[17] = test system: MMP-13; set-up: method as in PMID 23541335, PMID 16538215; details: cited from earlier work
[18] = concentrations up to 10,000 ng/mL (20.94 μM)
[19] = higher concentrations (up to 100,000 ng/mL or 209.36 μM)

In the case of CNC(=O)[C@H](Cc1ccccc1)NC(=O)[C@H](CC(C)C)[C@H](CSc1cccs1)C(=O)NO [Batimastat], the tumor growth [1] is given as “inhibit tumor growth”, the toxicity to cells [2] is given as “toxic” and the toxicity to cells [3, 18] is given as “no toxicity”. The toxicity to cells [3, 19] was “only mild toxicity”, the toxicity to cells [4, 18] was “no toxicity” and the toxicity to cells [4, 19] was “only mild toxicity”. The “reduction in cell viability” value [5] was 20–40%, the “inhibition of cell growth” value [6] was “inhibit the growth” and the “effect on cell density” value [7] was “no apparent effect”. The toxicity to cells [8] was “toxic” and the “inhibition of cell growth” value [9] was “inhibit the growth”.
For Nc1ccc(Oc2ccc(S(=O)(=O)CC3CS3)cc2)cc1 (stereo not shown) [ND-322], the tumor growth [10] is listed as “inhibited the growth”.
For CC1(C)SCCN(S(=O)(=O)c2ccc(Oc3ccncc3)cc2)[C@H]1C(=O)NO [Prinomastat], the tumor growth [11] is listed as “inhibit the growth”, the tumor growth [12] is listed as “inhibit the growth” and the “concentrations toxic to cells” value [13] is listed as “above 100 μM”.
In the case of O=C1NC(=O)C(c2ccc(-c3ccccc3)cc2)(N2CCN(c3ccc([N+](=O)[O-])cc3)CC2)C(=O)N1 [RO 28-2653], the tumor growth [14] is listed as “inhibit the growth”.
For O=C(C[C@H](CSc1ccccc1)C(=O)O)c1ccc(-c2ccc(Cl)cc2)cc1 [tanomastat], the “inhibition of MMP-8” value [15] is given as “does not inhibit”, the “inhibition of MMP-1” value [16] is given as “does not inhibit” and the “inhibition of MMP-13” value [17] is given as “does not inhibit”.
